Molecules are shown by their SMILES. Calls of active or inactive are those of the source. The calls are words filed in the database; no cut-off is given here.

Series [1] is described as follows: Cytotoxicity against mouse BV-2 cells assessed as cell viability at 20 uM incubated for 24 hr by CCK-8 assay. The series is classed as toxicity, cell-based. Conditions: read-out: Activity.
Series [2] has as its system BV-2. The series is described as follows: Antineuroinflammatory activity in LPS-induced mouse BV-2 cells assessed as reduction in TNF-alpha level at 20 uM pretreated with LPS for 4 hrs followed by compound treatment for 24 hrs by ELISA analysis. The series is classed as functional, cell-based. In general terms: ELISA stands for enzyme-linked immunosorbent assay.
For series [3], the system named is Mitochondrial membrane. The series is described as follows: Induction of mitochondrial membrane potential in LPS-induced mouse BV-2 cells assessed as reduction in ratio of red to green fluorescence intensity at 20 uM pretreated with LPS for 4 hrs followed by compound treatment for 24 hrs by JC-1 staining based assay. The series is classed as cell membranes.
In series [4] the test system is BV-2. The series is described as follows: Antineuroinflammatory activity in LPS-induced mouse BV-2 cells assessed as reduction in IL-6 level at 20 uM pretreated with LPS for 4 hrs followed by compound treatment for 24 hrs by ELISA analysis. It counts as functional, cell-based.
For series [5], the system named is BV-2. The series is described as follows: Antineuroinflammatory activity in LPS-induced mouse BV-2 cells assessed as reduction in IL-1beta level at 20 uM pretreated with LPS for 4 hrs followed by compound treatment for 24 hrs by ELISA analysis. It counts as functional, cell-based.
In series [6] the test system is BV-2. The series is described as follows: Antineuroinflammatory activity in LPS-induced mouse BV-2 cells assessed as reduction in ROS level pretreated with LPS for 4 hrs followed by compound treatment for 24 hrs by ROS probe based microscopy. It counts as functional, cell-based. Conditions: dose 20.0 µM.

For `N=C(N)NCCCCNC(=O)Cc1ccc(O)c(Cl)c1`, in series [1], the viability at 24 h, 20 µM is more than 75%.
On to `CC(=O)CC(C)(C)n1cnc2c(=O)[nH]cnc21`, for which, in series [1], the viability at 24 h, 20 µM is more than 75%.
With `COc1cc(CC(=O)NCCCCNC(=N)N)ccc1O`, the result in series [2], in series [3], in series [4] and in series [5] was Active. Moreover, the viability at 24 h, 20 µM in series [1] was more than 75%.
As for `N=C(N)NCCCCNC(=O)Cc1cc(Cl)c(O)c(Cl)c1`, the viability at 24 h, 20 µM in series [1] was more than 75%.
Same read-out and setting: the same measure for `N=C(N)NCCCCNC(=O)Cc1ccc(O)cc1`: more than 75%; for `N=C(N)NCCCCNC(=O)c1ccccc1`: more than 75%.
For `N=C(N)NCCCCNC(=O)Cc1ccccc1`, the viability at 24 h, 20 µM in series [1] was more than 75%.
On to `N=C(N)NCCCCn1cnc2ccccc2c1=O`, for which, in series [1], the viability at 24 h, 20 µM is more than 75%.
In the case of `COc1ccc2[nH]cc(CCNC(C)=O)c2c1`, the Activity result in series [6] was “Dose-dependent-effect”.
Regarding `N=C(N)NCCCCNC(=O)c1c[nH]c2ccccc12`, the viability at 24 h, 20 µM in series [1] was more than 75%.
Still for that read-out and setting: next, `N=C(N)NCCCCNC(=O)c1ccc(O)cc1`: more than 75%; `N=C(N)NCCCCNC(=O)c1cccnc1`: more than 75%.
Take `CCC/C=C/C(=O)NCCCCNC(=N)N`: the viability at 24 h, 20 µM in series [1] is more than 75%.
On the same count and under the same terms, next, `N=C(N)NCCCCNC(=O)Cc1c[nH]c2ccccc12`: more than 75%.

The values are drawn from ChEMBL document CHEMBL6103632, “Seven New Guanidine Derivatives and One New Hypoxanthine Derivative Isolated from the Scorpion Buthus martensii and Potential Anti-Neuroinflammatory Activity” (J Nat Prod, 2025).
